From patent publication US7119107B2, “Pyridone derivatives” (Banyu Pharmaceutical Co., Ltd., priority 2002, dated 2006)
Read-outs that look alike come from different tables or passages of the source.

Columns and labels:
human NPY Y5 receptor = target: T1, human NPY Y5 receptor (Homo sapiens, UniProt Q15761); assay: NPY binding inhibition test ([125I]peptide YY binding to membranes of NPY Y5 receptor expression cells); conditions: [125I]peptideYY, membranes of NPY Y5 receptor expressing cells, 25° C., 2 hours; read-out: 50% Inhibitory Concentration (IC50) against specific peptide YY binding
T1 construct: expressed in transfected cells; host or cells: COS-7, CHO and LM(tk-)
T1 sequence (Q15761 1-445): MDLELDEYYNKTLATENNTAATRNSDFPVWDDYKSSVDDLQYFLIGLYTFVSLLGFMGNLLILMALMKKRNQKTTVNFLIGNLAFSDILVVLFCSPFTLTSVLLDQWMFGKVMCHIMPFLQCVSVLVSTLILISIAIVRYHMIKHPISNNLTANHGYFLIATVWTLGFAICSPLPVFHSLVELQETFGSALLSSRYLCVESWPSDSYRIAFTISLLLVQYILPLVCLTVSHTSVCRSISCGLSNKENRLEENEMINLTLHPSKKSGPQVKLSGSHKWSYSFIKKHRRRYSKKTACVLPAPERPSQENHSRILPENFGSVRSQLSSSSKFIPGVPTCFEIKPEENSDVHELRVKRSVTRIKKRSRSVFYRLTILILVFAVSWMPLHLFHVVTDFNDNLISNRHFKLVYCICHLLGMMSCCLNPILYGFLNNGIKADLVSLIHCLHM
Text: Pharmacological Test 1 (NPY Binding Inhibition Test)
cDNA sequence encoding human NPY Y5 receptor (c.f. International patent publication WO96/16542) was cloned into expression vectors pcDNA3, pRc/RSV (made by Invitrogen Inc.) and pCI-neo (made by Promega Inc.). The expression vectors thus obtained were transfected to host cells COS-7, CHO and LM(tk−) (American Type Culture Collection) by cationic lipid method (Proceedings of the National Academy of Sciences of the United States of America, vol. 84: p. 7413(1987)) to give NPY Y5 receptor expression cells.
A membrane sample prepared from the cells which expressed NPY Y5 receptor was incubated together with a test compound and [^125I]peptideYY (made by NEN) (20,000 cpm) in an assay buffer (25 mM Tris buffer, pH7.4, containing 10 mM magnesium chloride, 1 mM phenylmethylsulfonyl fluoride, 0.1% bacitracin and 0.5% bovine serum albumin) at 25° C. for 2 hours, then filtered through a glass filter GF/C and washed with 5 mM Tris buffer (pH7.4) containing 0.3% BSA. The radioactivity of the cake on the glass filter was measured. Non-specific binding was measured in the presence of 1 μM peptide YY, and a 50% Inhibitory Concentration (IC50) of the test compound against specific peptide YY binding was determined (Endocrinology, vol. 131: p. 2090(1992)).

Pharmacokinetics test = type: in vivo; conditions: rat, plasma, male SD rats, overnight fasting
Protocol: Pharmacological Test 3 (Pharmacokinetics Test)
A test compound was orally or intravenously administered to male SD rats (7–10 weeks old, 200–400 g) under the overnight fasting condition. About 100 μL of blood was collected from the tail vein by heparinized capillary at designated time. The blood was centrifuged (4° C., 6,000 r.p.m., 10 minutes) to obtain the plasma. Three-fold amount of ethanol containing an internal standard was added to plasma. The mixture was stirred, allowed to stand at −20° C. for 20 minutes, and then centrifuged (4° C., 10,000 r.p.m., 10 minutes). The supernatant was analyzed by LC/MS/MS, and the concentration of the test compound in the plasma was measured using a relative calibration curve.

[1] = Brain/cerebrospinal fluid transport test; type: in vivo, male SD rats; conditions: rat, one hour after oral administration (10 mg/kg); for concentration at 1 h: male, SD
Protocol: Pharmacological Test 4 (Brain/Cerebrospinal Fluid Transport Test)
A test compound was orally or intravenously administered to male SD rats (7–10 weeks old, 200–400 g), and whole blood was collected from the abdominal aorta using a heparin-treated syringe under the ether anesthesia at designated time. Then, the head skin was cut out, and a dental 30 G needle was inserted between the cervical vertebrae, and it was further inserted into the cavum subarachnoideum. After 50 to 100 μL cerebrospinal fluid had been collected by a 1 ml-syringe through a tube connected to the dental 30 G needle, the brain was extracted. The blood sample was centrifuged (4° C., 6,000 r.p.m., 10 minutes) to obtain the plasma, and 3-fold amount of ethanol containing an internal standard was added and stirred. The brain sample was homogenized after addition of 2 ml water, and an aliquot of the homogenate was taken and 3-fold amount of ethanol containing an internal standard was added and stirred. The cerebrospinal fluid was stirred after adding 3-fold amount of ethanol containing an internal standard. These samples were allowed to stand at −20° C. for 20 minutes, and then centrifuged (4° C., 12,000 g, 10 minutes). The supernatant was analyzed by LC/MS/MS, and the concentration of the test compound in the plasma, brain, and cerebrospinal fluid were measured by the method using a relative calibration curve.

general symptoms = assay: General symptoms observation; type: in vivo; conditions: mice, 100 mg/kg orally, observed 0.5 to 24 hours after administration
Protocol: Pharmacological Test 5 (General Symptoms Observation)
A test compound was orally administered to male ICR mice (4–6 weeks old) under the overnight fasting condition, and general symptoms were observed 0.5, 1, 2, 3, 4 and 24 hours after the administration. The following 28 items were observed: stereotypy, glooming, vocalization, exploratory behavior, motor coordination, Straub tail reaction, tremor, convulsion, body posture, piloerection, writhing, palpebral opening, exophthalmos, skin color, respiratory rate, urination, defecation, salivation, lacrimation, startle response, aggression, grip strength, corneal reflex, body temperature, body tone, righting reflex, pain response and death.

[2] = test system: gastrointestinal motility; assay: Gastrointestinal motility (charcoal transportation); type: in vivo, male ICR mice; conditions: mice, 100 mg/kg orally, charcoal one hour later
Protocol: Pharmacological Test 6 (Gastrointestinal Motility) A test compound was orally administered to male ICR mice (4–6 weeks old) under the overnight fasting condition and, one hour later, 0.5% charcoal suspension (0.1 ml/10 g body weight) was orally administered. One hour after the administration of the charcoal, gastrointestinal tracts of the animals were removed, and length of the intestine from pylorus to the point to which charcoal reached was measured to obtain charcoal transportation ratio.

canine cardiac function = assay: Canine cardiac function; type: in vivo, male beagle dogs; conditions: anesthetized beagle dogs, 3 mg/kg and 10 mg/kg via vein cannula, up to 60 minutes
Text: Pharmacological Test 7 (Canine Cardiac Function)
The left femoral artery and vein of male beagle dogs (age: 9 months or older, weight: 10–15 kg) under anesthesia with isoflurane and artificial respiration were respectively cannulated for determination of arterial pressure and for administration of drugs. A tip catheter pressure transducer was placed in the left ventricle from the left carotid artery for determination of the left ventricular pressure. A Swan-Ganz catheter was placed in the pulmonary artery from the jugular vein via the right ventricle for determination of the pulmonary artery pressure, right atrium pressure and cardiac output. A transit doppler flow probe was attached to the right femoral artery for determination of the femoral blood flow. After completion of the operation, a solvent was administered from the cannula in the vein, followed by administration of a drug to be tested. Each parameter was determined just after the administration, and 10, 20, 30 and 60 minutes after the administration. The parameters determined were artery pressure, left ventricular pressure, pulmonary artery pressure, right atrium pressure, cardiac output, femoral blood flow, heart rate, electrocardiogram, left ventricular contractile performance (first differential of the left ventricular pressure), total peripheral vascular resistance, body temperature and arterial blood gas.

`C[C@@H]1NC(c2cccc(=O)[nH]2)=N[C@]1(c1ccc(F)cc1)c1ccnc(F)c1` [Example 1, 6-[(4R,5S)-4-(4-fluorophenyl)-4-(2-fluoro-4-pyridyl)-5-methyl-2-imidazolin-2-yl]-2(1H)-pyridinone] showed an IC50 (human NPY Y5 receptor) of 2.8 nM, a bioavailability (Pharmacokinetics test; oral or intravenous administration) of 51% and a half-life (Pharmacokinetics test) of 2.5 h. The concentration at 1 h ([1]; cerebrospinal fluid, read-out: concentration in the cerebrospinal fluid) was 106 nM, the concentration at 1 h ([1]; plasma, read-out: concentration in the plasma) was 2790 nM and the “concentration in the brain” value [1] was 0.29 nmol/g. The “effect on general symptoms (28 items)” value (general symptoms) was “did not affect”, the “effect on gastrointestinal motility (charcoal transportation ratio)” value [2] was “did not affect” and the “effect on canine cardiac function” value (canine cardiac function) was “did not affect”.
